# Test results reported in patent US10980808B2, “Calmodulin inhibitors, Chk2 inhibitors and RSK inhibitors for the treatment of ribosomal disorders and ribosomapathies” (THE CHILDREN'S MEDICAL CENTER CORPORATION, priority 2016, dated 2021).
# Entries after “also recorded” stand apart in the source; their conditions may differ.
# Tests used:
# [1] = system: rps29−/− zebrafish embryos; experiment: hemoglobin (benzidine staining) rescue in rps29-/- zebrafish embryos; type: in vivo; conditions: for Hb increase at low concentrations: rps29−/− embryos, compared with positive control fluphenazine / with DB-4-089; for hemoglobin (Hb) in rps29−/− embryos: benzidine staining
# [2] = system: rps29−/− zebrafish embryos; experiment: chemical screen: rescue of morphological, hematopoietic and endothelial defects of rps29-/- embryo; type: in vivo
# [3] = system: RPS19 shRNA CD34+ peripheral blood mononuclear cells; experiment: primary human in vitro differentiation model of DBA: CD34+ PBMCs with RPS19 shRNA, CD71+ flow cytometry; type: cell-based; conditions: treated once for 5 days
# From the text: FIG. 40 is a schematic of the testing of novel phenothiazine derivatives in a human in vitro model of DBA. Primary human peripheral blood mononuclear cells (PBMCs) are transduced with RPS19-GFP shRNA to make a ribiosomal protein deficiency. Cells are transferred to eyrthroid differentiation media and treated once for 5 days with Drug. Cells are harvested and analyzed for erythroid precursors by flow cytomety for CD71^+ cells.
# We next tested three derivatives in our primary human in vitro differentiation model of DBA. To do this we expanded CD34+ peripheral blood mononuclear cells in culture for 2 days and induced ribosomal protein deficiency with a lentirvirus containing RPS19 shRNA (FIG. 40). After 3 days the cells are placed into erythroid differentiation media with or without the novel derivatives and cultured for 5 days. Erythroid differentiation is then assessed by flow cytometry analysis for the transferrin receptor, CD71+. […] In addition, the novel derivatives increased the absolute erythroid number compared to DMSO treated (FIG. 41). […] A table summarizing the activity of the compounds is found in FIG. 43.
# Raf = conditions: upstream kinase; cited from earlier work
# MEK = conditions: upstream kinase; cited from earlier work
# PKC = conditions: upstream kinase; cited from earlier work
# 6 dpf WT zebrafish = experiment: zebrafish behavior tracking (proxy for BBB permeation); conditions: for zebrafish movement / swimming behavior vs DMSO: 6 dpf, drug in fish water, tracked 1-2 h
# Rps19 deficient mice = experiment: DBA dox-inducible RPS19 knockdown mouse model; type: in vivo; conditions: treated every other day for 2 weeks
# [4] = system: RPS19 deficient cord blood derived CD34+ cells; experiment: human in vitro model of DBA: cord blood CD34+ cells with RPS19 shRNA, erythroid differentiation; type: cell-based
# [5] = system: RPS19 deficient CD34 cells; experiment: phosphorylation in RPS19 deficient CD34 cells; type: cell-based, human
# From the text: FIG. 18 is a schematic of the assay of RSK activation in human cells. The most relevant in vitro model in the blood field is primary human cells-such as Peripheral blood mononuclear cells (PBMCs). […] FIG. 19B schematic ov RP deficiency. TFP treatment reduces P-RPS6 and P-p53 […] and p53 total levels.
# [6] = system: p53 phosphorylation in 293T cells; experiment: mass spectrometry of p53 post-translational modifications in 293T cells; type: cell-based; conditions: 3 hours; for percentage of peptides containing phosphorylated serine 392 of p53: WT-p53-GFP
# Method: FIGS. 10A to 10C show schematics, graphs and gels that indicate CaM and Chk2 inhibitors reduce S392 phosphorylation. FIG. 10A is a schematic of conserved regulatory region phosphorylation sites. FIG. 10B are graphs of an unbiased mass spectrometry analysis looking for post-translational modifications of p53 altered in the presence of the CaM inhibitor TFP or the Chk2 inhibitor, BML. 293T cells were transfected with WT-p53 tagged with GFP and treated with TFP or BML for 3 hours. P53 was immunoprecipitated using an antibody against GFP and was submitted for mass spec analysis. […] By two different mass spec methods, either conventional mass spec or by TMT tagging of the peptide we found in both cases the percentage of peptides containing phosphorylated serine 392 was reduced in TFP and BML treated samples (FIG. 10B). It was also noted that this serine is conserved in both zebrafish and mouse (FIG. 10A). FIG. 10C is a Western Blot that indicates phosphorylation decrease.
# p53 in Saos2 cells = experiment: p53 activity in Saos2 cells transfected with p53 constructs (qPCR); type: cell-based
# Method: FIG. 9A a schematic of wild type P53 and deleted regulatory region p53 (p53 reg). FIG. 9[…] of procedure. Saos2 cells (p53-null cells) transiently transfected with p53 constructs and were treated with vehicle or 20 μM TFP for 24 hours. TFP activity on p53 was assessed by the ability of TFP to reduce p21 mRNA levels measured by qPCR. FIG. 9C is a graph of p21 RNA expression. Since our compound decreases p53 activity, we wanted to determine the region of p53 is responsible for CaM inhibitor activity. […] Next, the c-terminal 30 amino acids from p53 (363-393) were removed. This construct is p53-reg. […] FIGS. 11A to 11C are schematics and graphs which indicate that p53 S392 phhosphomimetic prevents TFP from reducing p53 activity. To confirm the importance of the ability of CaM inhibitors to block the phosphorylation of p53, we created phosphomimetic p53 by replacing […], which mimics constitutive phosphorylation. We also generated a control phosphomimetic p53 where […]. This mutant should have no effect on the ability of TFP to reduce p53 activity. FIG. 11A is a schematic of experiment used to test these mutants, we transiently transfected, WT p53, […] and […] into Saos2 cells and treated them with vehicle or TFP. To assess p53 activity, we examined p21 and MDM2 mRNA levels. FIG. 11B is a graph of p21 Expression. FIG. 11C is a graph of MDM2 mRNA expression. […] Confirming that blocking the S392 phosphorylation is important for the activity of TFP.
# [7] = system: 293T cells with RPS19 shRNA; experiment: phosphorylation in 293T cells with RPS19 shRNA; type: cell-based, human; conditions: for phosphorylation of p70S6K: during ribosomal protein deficiency
# From the text: FIGS. 17A to 17C are scehmatics and gels that indicate CaM and Chk2 inhibitors block phosphorylation of p70S6K selectively during RP deficiency. FIG. 17A schematic, we used 293T cells, and induced ribosomal protein deficiency using shRNA for RPS19 or Luc for control. […] ERK phosphorylation is increased by these inhibitors, which is also seen with RSK inhibitors. FIG. 17C a gel of the effect of Luc and […] shRNA on phosphorylated S392. […] RSK inhibitors increase ERK phosphorylation through a negative feedback loop. So TFP and BML similarly affect ERK in the same manner.
# p70S6K = p70S6K (Homo sapiens, UniProt P23443); experiment: in vitro kinase profiling (Thermo Fisher SelectScreen), p70S6K; type: biochemical
# Sequence of p70S6K (P23443 whole entry): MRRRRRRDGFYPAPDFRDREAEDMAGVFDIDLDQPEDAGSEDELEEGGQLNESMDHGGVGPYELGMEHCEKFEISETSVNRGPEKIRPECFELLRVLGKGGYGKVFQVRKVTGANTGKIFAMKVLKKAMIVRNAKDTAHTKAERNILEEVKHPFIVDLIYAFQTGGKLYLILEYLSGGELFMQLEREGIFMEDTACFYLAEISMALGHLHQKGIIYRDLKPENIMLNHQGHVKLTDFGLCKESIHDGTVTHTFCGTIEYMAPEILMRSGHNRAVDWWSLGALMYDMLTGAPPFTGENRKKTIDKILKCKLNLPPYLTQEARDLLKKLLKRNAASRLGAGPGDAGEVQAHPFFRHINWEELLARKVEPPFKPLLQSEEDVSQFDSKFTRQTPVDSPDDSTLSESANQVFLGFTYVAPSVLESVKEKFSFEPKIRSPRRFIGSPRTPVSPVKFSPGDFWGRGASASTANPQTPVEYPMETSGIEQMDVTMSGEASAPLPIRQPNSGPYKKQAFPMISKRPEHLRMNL
# From the text: We asked if CaM and Chk2 inhibitors are blocking specific kinases. The known kinases that phosphorylate S392 are CK2 and p38. […] Thus, the question became what is TFP inhibiting upstream? Is it inhibiting a kinase that phosphorylates S392? We submitted CaM and Chk2 inhibitors for Kinase profiling using Thermo Fisher's SelectScreen.
# RSK2 = RSK2 (Homo sapiens, UniProt P51812); conditions: in vitro; cited from earlier work
# Sequence of RSK2 (P51812 whole entry): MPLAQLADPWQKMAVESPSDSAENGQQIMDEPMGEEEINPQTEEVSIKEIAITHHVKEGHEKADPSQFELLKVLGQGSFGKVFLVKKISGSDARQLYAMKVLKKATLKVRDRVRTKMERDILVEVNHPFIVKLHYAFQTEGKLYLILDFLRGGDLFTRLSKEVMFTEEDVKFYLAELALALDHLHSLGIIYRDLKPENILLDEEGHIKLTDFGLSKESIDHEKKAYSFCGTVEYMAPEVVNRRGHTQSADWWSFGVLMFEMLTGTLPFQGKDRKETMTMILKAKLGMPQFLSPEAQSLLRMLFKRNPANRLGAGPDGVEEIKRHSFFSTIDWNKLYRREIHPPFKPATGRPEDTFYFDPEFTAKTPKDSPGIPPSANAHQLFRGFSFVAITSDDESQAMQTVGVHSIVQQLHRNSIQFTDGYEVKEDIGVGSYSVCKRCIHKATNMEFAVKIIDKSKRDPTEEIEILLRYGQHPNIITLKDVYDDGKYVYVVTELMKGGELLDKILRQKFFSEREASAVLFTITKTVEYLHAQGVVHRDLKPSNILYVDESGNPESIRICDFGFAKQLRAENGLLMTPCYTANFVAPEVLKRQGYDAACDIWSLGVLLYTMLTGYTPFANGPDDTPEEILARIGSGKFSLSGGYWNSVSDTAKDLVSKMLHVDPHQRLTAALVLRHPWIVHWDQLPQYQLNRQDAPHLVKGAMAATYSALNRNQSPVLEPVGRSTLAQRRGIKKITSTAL
# RSK3 = RSK3 (Homo sapiens, UniProt Q15349); conditions: in vitro; cited from earlier work
# Sequence of RSK3 (Q15349 whole entry): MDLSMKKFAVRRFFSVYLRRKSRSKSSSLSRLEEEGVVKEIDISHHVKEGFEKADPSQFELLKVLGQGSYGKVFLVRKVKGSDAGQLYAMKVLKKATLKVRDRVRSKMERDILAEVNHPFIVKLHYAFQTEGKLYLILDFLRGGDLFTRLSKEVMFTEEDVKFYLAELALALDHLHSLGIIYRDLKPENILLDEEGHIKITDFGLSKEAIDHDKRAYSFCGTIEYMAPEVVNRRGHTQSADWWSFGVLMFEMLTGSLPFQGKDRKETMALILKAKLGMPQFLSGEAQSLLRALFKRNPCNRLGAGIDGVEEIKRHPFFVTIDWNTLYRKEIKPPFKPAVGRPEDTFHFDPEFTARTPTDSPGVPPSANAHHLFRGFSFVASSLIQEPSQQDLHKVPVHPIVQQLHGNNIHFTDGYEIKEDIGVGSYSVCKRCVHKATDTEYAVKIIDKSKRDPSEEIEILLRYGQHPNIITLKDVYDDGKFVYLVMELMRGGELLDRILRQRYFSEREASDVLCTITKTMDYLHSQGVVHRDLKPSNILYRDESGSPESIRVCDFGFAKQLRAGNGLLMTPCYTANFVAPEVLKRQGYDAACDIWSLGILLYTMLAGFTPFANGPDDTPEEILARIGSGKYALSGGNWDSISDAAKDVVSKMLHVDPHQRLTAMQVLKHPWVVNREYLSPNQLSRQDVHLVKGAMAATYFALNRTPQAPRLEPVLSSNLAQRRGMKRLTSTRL
# RSK1 = RSK1 (Homo sapiens, UniProt Q15418); conditions: in vitro; cited from earlier work
# Sequence of RSK1 (Q15418 whole entry): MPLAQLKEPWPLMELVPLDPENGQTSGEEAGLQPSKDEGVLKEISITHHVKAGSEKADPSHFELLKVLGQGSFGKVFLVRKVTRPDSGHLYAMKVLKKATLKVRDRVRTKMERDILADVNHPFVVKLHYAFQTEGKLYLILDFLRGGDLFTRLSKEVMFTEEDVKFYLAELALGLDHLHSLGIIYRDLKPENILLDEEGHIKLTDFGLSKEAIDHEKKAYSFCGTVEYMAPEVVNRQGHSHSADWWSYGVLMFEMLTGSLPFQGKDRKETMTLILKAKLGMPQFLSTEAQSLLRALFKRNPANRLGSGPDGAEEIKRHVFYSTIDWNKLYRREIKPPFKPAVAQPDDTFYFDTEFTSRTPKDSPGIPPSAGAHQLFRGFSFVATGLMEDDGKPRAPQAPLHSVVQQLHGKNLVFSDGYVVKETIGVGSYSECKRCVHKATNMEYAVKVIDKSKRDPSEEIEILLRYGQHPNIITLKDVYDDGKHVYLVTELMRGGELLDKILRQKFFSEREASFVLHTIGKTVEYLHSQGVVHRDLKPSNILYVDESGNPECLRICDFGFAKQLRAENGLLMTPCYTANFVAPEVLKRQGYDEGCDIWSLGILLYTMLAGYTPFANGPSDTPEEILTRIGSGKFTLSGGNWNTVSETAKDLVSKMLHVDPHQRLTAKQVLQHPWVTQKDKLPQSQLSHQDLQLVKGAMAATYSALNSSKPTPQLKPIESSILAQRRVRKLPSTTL
# RSK4 = RSK4 (Homo sapiens, UniProt Q9UK32); conditions: in vitro; cited from earlier work
# Sequence of RSK4 (Q9UK32 whole entry): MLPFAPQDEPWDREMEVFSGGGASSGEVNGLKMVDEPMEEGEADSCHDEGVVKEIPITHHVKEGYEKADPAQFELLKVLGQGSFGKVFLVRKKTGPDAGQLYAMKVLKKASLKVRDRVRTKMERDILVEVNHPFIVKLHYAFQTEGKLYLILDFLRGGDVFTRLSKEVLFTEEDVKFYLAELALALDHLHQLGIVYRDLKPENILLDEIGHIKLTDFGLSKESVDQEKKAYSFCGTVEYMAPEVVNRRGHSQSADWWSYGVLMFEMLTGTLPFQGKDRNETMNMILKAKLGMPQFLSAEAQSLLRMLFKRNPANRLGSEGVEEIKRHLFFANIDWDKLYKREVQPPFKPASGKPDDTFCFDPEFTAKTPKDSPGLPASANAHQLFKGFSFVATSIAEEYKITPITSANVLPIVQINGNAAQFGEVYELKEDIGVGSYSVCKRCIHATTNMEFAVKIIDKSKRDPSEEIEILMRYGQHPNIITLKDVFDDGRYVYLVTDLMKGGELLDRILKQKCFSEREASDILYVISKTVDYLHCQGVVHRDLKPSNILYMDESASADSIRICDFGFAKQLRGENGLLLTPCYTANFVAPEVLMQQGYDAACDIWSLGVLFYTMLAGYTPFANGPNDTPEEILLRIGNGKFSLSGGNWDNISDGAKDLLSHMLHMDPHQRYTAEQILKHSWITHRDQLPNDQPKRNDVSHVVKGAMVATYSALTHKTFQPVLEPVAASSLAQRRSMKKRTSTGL
# [8] = Saos2 cells with WT p53 or S15D p53
compound,measurement,setting,value
CC(C)N(CCCN1c2ccccc2Sc2ccc(Cl)cc21)CCCN1c2ccccc2Sc2ccc(Cl)cc21 [088-2],Hb increase at low concentrations,[1],increase Hb at lower concentrations than the positive control phenothiazine
same,rescuing morphological defects and hematopoietic and endothelial defects,[2],work particularly well
same,percentage of erythroid precursor cells (CD71+) compared to DMSO,[3],increased the percentage of erythroid precursor cells
"3-[(3,4-Di-O-acetyl-6-deoxy-α-L-mannopyranosyl)oxy]-5,7-dihydro-2-(4-hydroxyphenyl)-4H-1benzopyran-4-one [SL]",inhibition of Raf,Raf,Does not inhibit
same,inhibition of MEK,MEK,Does not inhibit
same,hemoglobin (Hb) in rps29−/− embryos,[1],increase Hb
same,inhibition of PKC,PKC,Does not inhibit
Clc1ccc2c(c1)N(CCCN1CCN(CCNCCCOCCOCCOCCCNC(c3ccccc3)(c3ccccc3)c3ccccc3)CC1)c1ccccc1S2 [221E],zebrafish movement / swimming behavior vs DMSO,6 dpf WT zebrafish,more erratic activity
"CN1CCN(CCCN2c3ccccc3Sc3ccc(C(F)(F)F)cc32)CC1 [TFP, trifluoperazine]",hemoglobin levels,Rps19 deficient mice,significantly increases
same,p21 mRNA levels (p53 activity) in bone marrow,Rps19 deficient mice,reduced; also recorded: decreases
same,red blood cell number,Rps19 deficient mice,significantly increases
same,% erythroid precursor cells (CD71+) on day 12,[4],increases
same,p21 mRNA levels,[4],dose dependently decreases
same,P-RPS6,[5],reduces
same,P-p53 S392,[5],reduces
same,p53 total levels,[5],reduces
same,percentage of peptides containing phosphorylated Serine 6 of p53,[6],did not change
same,percentage of peptides containing phosphorylated Serine 315 of p53,[6],did not change
same,percentage of peptides containing phosphorylated serine 392 of p53,[6],reduced
same,ability of p53 to form a tetramer,p53 in Saos2 cells,did not inhibit
same,MDM2 mRNA levels,p53 in Saos2 cells; [8],able to reduce
same,p21 mRNA levels,p53 in Saos2 cells; [8],able to reduce
same,MDM2 mRNA levels,p53 in Saos2 cells; Saos2 cells with p53 S392D,unable to reduce
same,p21 mRNA levels,p53 in Saos2 cells; Saos2 cells with p53 S392D,unable to reduce
same,hemoglobin (Hb) in rps29−/− embryos,[1],rescue Hb
same,ERK phosphorylation,[7],increased
same,phosphorylation of p70S6K,[7],selectively inhibited
NC1=N/C(=C2/CCNC(=O)c3cc4[nH]c5ccccc5c4cc32)C(=O)N1 [III],hemoglobin (Hb) in rps29−/− embryos,[1],Resues Hb; also recorded: rescue Hb
same,"percent inhibition of in vitro kinase activity, p70S6K",p70S6K,inhibition
CC(C)(C)OC(=O)CCN1CCN(CCCN2c3ccccc3Sc3ccc(Cl)cc32)CC1 [compound 083],Hb increase at low concentrations,[1],did not increase Hb at the same low concentrations
Clc1ccc2c(c1)N(CCCN1CCOCC1)c1ccccc1S2 [compound 086],Hb increase at low concentrations,[1],did not increase Hb at the same low concentrations
NCCNS(=O)(=O)c1cccc2c(Cl)cccc12 [A-3],hemoglobin (Hb) in rps29−/− embryos,[1],rescue Hb
CN1CCC(N(CCCN2c3ccccc3Sc3ccc(Cl)cc32)CCCN2c3ccccc3Sc3ccc(Cl)cc32)CC1 [compound 089],zebrafish movement / swimming behavior vs DMSO,6 dpf WT zebrafish,altered behavior; also recorded: alters movement
same,toxicity in behavior assay,6 dpf WT zebrafish; highest dose,toxic at the highest dose
same,Hb increase at low concentrations,[1],increase Hb at lower concentrations than the positive control phenothiazine
same,Hb increase at low concentrations,[1]; listed as DB-4-089,increased Hb at low concentrations
same,rescuing morphological defects and hematopoietic and endothelial defects,[2],work particularly well
same,percentage of erythroid precursor cells (CD71+) compared to DMSO,[3],increased the percentage of erythroid precursor cells
same,percentage of erythroid precursor cells (CD71+) compared to DMSO,[3]; listed as DB-4-089,increased eyrthroid differentiation
CC(C)CCC1c2nc(Nc3cc(F)c(O)c(F)c3)ncc2N(C)C(=O)C1C (centres unmarked) [BI-D1870],IC50,RSK2,24 nM
same,IC50,RSK3,18 nM
same,IC50,RSK1,31 nM
same,IC50,RSK4,15 nM
OCCN1CCN(CCCN2c3ccccc3Sc3ccc(Cl)cc32)CC1 [perphenizine],hemoglobin (Hb) in rps29−/− embryos,[1],increase Hb
NCCCCCCNS(=O)(=O)c1cccc2c(Cl)cccc12 [W-7],hemoglobin (Hb) in rps29−/− embryos,[1],rescue Hb
NC(=O)c1ccc2nc(-c3ccc(Oc4ccc(Cl)cc4)cc3)[nH]c2c1 [BML],percentage of peptides containing phosphorylated Serine 6 of p53,[6],did not change
same,percentage of peptides containing phosphorylated Serine 315 of p53,[6],did not change
same,percentage of peptides containing phosphorylated serine 392 of p53,[6],reduced
same,ERK phosphorylation,[7],increased
same,phosphorylation of p70S6K,[7],selectively inhibited
CC(C)NCCCN1c2ccccc2Sc2ccc(Cl)cc21 [088-3],Hb increase at low concentrations,[1],increase Hb at lower concentrations than the positive control phenothiazine
same,rescuing morphological defects and hematopoietic and endothelial defects,[2],work particularly well
"OCCN1CCN(CCCN2c3ccccc3Sc3ccc(C(F)(F)F)cc32)CC1 [FLU, fluphenazine]",hemoglobin (Hb) in rps29−/− embryos,[1],rescues better than either RSK or p70S6K inhibitor alone
same,hemoglobin (Hb) in rps29−/− embryos,[1]; listed as fluphenazine,increase Hb
Clc1ccc2c(c1)N(CCCN1CCCCC1)c1ccccc1S2 [compound 084],Hb increase at low concentrations,[1],did not increase Hb at the same low concentrations
"CCc1cncnc1N1CCN(Cc2nc3cc(C(F)(F)F)ccc3[nH]2)CC1 [PF, 2-[[4-(5-Ethylpyrimidin-4-yl)piperazin-1-yl]methyl]-5-(trifluoromethyl)-1H-benzo[d]imidazole]",hemoglobin (Hb) in rps29−/− embryos,[1],increase Hb
O=C(O)CCC(=O)NCCN1CCN(CCCN2c3ccccc3Sc3ccc(Cl)cc32)CC1 [PerSucc],zebrafish movement / swimming behavior vs DMSO,6 dpf WT zebrafish,less active and rest more than DMSO treated fish
same,hemoglobin (Hb) in rps29−/− embryos,[1],dramatic rescue of Hb expression; also recorded: increase Hb
same,rescuing morphological defects and hematopoietic and endothelial defects,[2],work particularly well
